Laboratory results from patent US10112906B2, “1-aryl-3-alkylpyrazole insecticides” (E. I. DU PONT DE NEMOURS AND COMPANY, priority 2013, dated 2018).

Key:
Type in all cases: in vivo
[1] = tested on: diamondback moth (Plutella xylostella (L.)); test: Test A: control of diamondback moth, foliar spray on mustard plant; settings: neonate larvae, assessed after 6 days
Description: (§1) Test compounds were formulated using a solution containing 10% acetone, 90% water and 300 ppm X-77® Spreader Lo-Foam Formula non-ionic surfactant containing alkylarylpolyoxyethylene, free fatty acids, glycols and isopropanol (Loveland Industries, Inc. Greeley, Colo., USA). The formulated compounds were applied in 1 mL of liquid through a SUJ2 atomizer nozzle with ⅛ JJ custom body (Spraying Systems Co. Wheaton, Ill., USA) positioned 1.27 cm (0.5 inches) above the top of each test unit. Test compounds were sprayed at the rates indicated, and each test was replicated three times.
For evaluating control of diamondback moth (Plutella xylostella (L.)) the test unit consisted of a small open container with a 12-14-day-old mustard plant inside. This was pre-infested with ˜50 neonate larvae that were dispensed into the test unit via corn cob grits using an inoculator. The larvae moved onto the test plant after being dispensed into the test unit.
Test compounds were formulated and sprayed at 250 and/or 50 ppm. After spraying of the formulated test compound, each test unit was allowed to dry for 1 hour and then a black, screened cap was placed on top. The test units were held for 6 days in a growth chamber at 25° C. and 70% relative humidity. Plant feeding damage was then visually assessed based on foliage consumed, and larvae were assessed for mortality.

[2] = tested on: fall armyworm (Spodoptera frugiperda (J. E. Smith)); test: Test B: control of fall armyworm, foliar spray on corn (maize) plant; settings: 1-day-old larvae, assessed after 6 days
Description: as §1
For evaluating control of fall armyworm (Spodoptera frugiperda (J. E. Smith)) the test unit consisted of a small open container with a 4-5-day-old corn (maize) plant inside. This was pre-infested with 10-15 1-day-old larvae on a piece of insect diet.
Test compounds were formulated and sprayed at 250 and/or 50 ppm. After spraying of the formulated test compound, the test units were maintained in a growth chamber for 6 days at 25° C. and 70% relative humidity. Plant feeding damage was then visually assessed based on foliage consumed, and larvae were assessed for mortality.

[3] = tested on: potato leafhopper (Empoasca fabae (Harris)); test: Test D: control of potato leafhopper through contact and/or systemic means; settings: 144 h, sprayed at 250 ppm, Soleil bean plant, adults, assessed after 6 days
Description: as §1
For evaluating control of potato leafhopper (Empoasca fabae (Harris)) through contact and/or systemic means, the test unit consisted of a small open container with a 5-6-day-old Soleil bean plant (primary leaves emerged) inside. White sand was added to the top of the soil, and one of the primary leaves was excised prior to application of the test compound.
Test compounds were formulated and sprayed at 250 and/or 50 ppm. After spraying of the formulated test compound, the test units were allowed to dry for 1 hour before they were post-infested with 5 potato leafhoppers (18-to-21-day-old adults). A black, screened cap was placed on the top of the test unit, and the test units were held for 6 days in a growth chamber at 20° C. and 70% relative humidity. Each test unit was then visually assessed for insect mortality.

| Molecule | control efficacy (40% or less feeding damage and/or 100% mortality) ([1]; sprayed at 50 ppm) | control efficacy (40% or less feeding damage and/or 100% mortality) ([1]; sprayed at 250 ppm) | control efficacy (40% or less feeding damage and/or 100% mortality) ([2]; sprayed at 50 ppm) | control efficacy (40% or less feeding damage and/or 100% mortality) ([2]; sprayed at 250 ppm) | mortality at 250 ppm [3] [%] |
| --- | --- | --- | --- | --- | --- |
| 2-[3-cyclohexyl-4-[[4-(trifluoromethyl)-1-piperidinyl]methyl]-1H-pyrazol-1-yl]-4-(trifluoromethyl)pyridine [Compound 23] | very good to excellent levels of control efficacy | very good to excellent levels of control efficacy | very good to excellent levels of control efficacy | very good to excellent levels of control efficacy |  |
| N#CC1CCN(Cc2cn(-c3ccc(Cl)c(Cl)c3)nc2Cc2ccccc2F)CC1 [Compound 1] | very good to excellent levels of control efficacy |  |  |  |  |
| N#CC1CCN(Cc2cn(-c3ccc(Cl)c(Cl)c3)nc2Cc2ccc(F)cc2)CC1 [Compound 2] | very good to excellent levels of control efficacy |  |  |  |  |
| N#CC1CCN(Cc2cn(-c3ccc(Cl)cc3)nc2C=CCl)CC1 [Compound 9] |  |  | very good to excellent levels of control efficacy | very good to excellent levels of control efficacy |  |
| N#CC1CCN(Cc2cn(-c3ccc(Cl)c(Cl)c3)nc2C2CC2)CC1 [Compound 12] | very good to excellent levels of control efficacy |  |  |  |  |
| CC(=O)N[C@H]1CCN(Cc2cn(-c3ccc(Cl)c(Cl)c3)nc2C2CC2)C1 [Compound 13] | very good to excellent levels of control efficacy |  |  |  |  |
| CCc1nn(-c2ccc(Cl)c(Cl)c2)cc1CN1CCC(C#N)CC1 [Compound 14] | very good to excellent levels of control efficacy |  |  |  |  |
| C=Cc1nn(-c2ccc(Cl)c(Cl)c2)cc1CN1CCC(C#N)CC1 [Compound 15] | very good to excellent levels of control efficacy |  |  |  |  |
| N#CC1CCN(Cc2cn(-c3ccc(Cl)c(Cl)c3)nc2C2CCCCC2)CC1 [Compound 19] |  |  | very good to excellent levels of control efficacy | very good to excellent levels of control efficacy |  |
| O=C(NC1CCN(Cc2cn(-c3ccc(Cl)c(Cl)c3)nc2C2CCCCC2)C1)C1CC1 (stereo not shown) [Compound 20] |  | very good to excellent levels of control efficacy |  | very good to excellent levels of control efficacy |  |
| Cc1nn(-c2ccc(Cl)c(Cl)c2)cc1CN1CCC(C#N)CC1 [Compound 21] | very good to excellent levels of control efficacy | very good to excellent levels of control efficacy |  |  |  |
| Cc1nn(-c2ccc(Cl)c(Cl)c2)cc1CN1CCC(NC(=O)C2CC2)C1 (stereo not shown) [Compound 22] | very good to excellent levels of control efficacy | very good to excellent levels of control efficacy |  |  |  |
| FC(F)(F)C1CCN(Cc2cn(-c3ccc(Cl)c(Cl)c3)nc2C2CCC2)CC1 [Compound 28] | very good to excellent levels of control efficacy | very good to excellent levels of control efficacy | very good to excellent levels of control efficacy | very good to excellent levels of control efficacy |  |
| C[Si](C)(C)C#Cc1nn(-c2ccc(Cl)c(Cl)c2)cc1CN1CCC(C#N)CC1 [Compound 29] |  |  | very good to excellent levels of control efficacy |  |  |
| C#Cc1nn(-c2ccc(Cl)c(Cl)c2)cc1CN1CCC(C#N)CC1 [Compound 31] | very good to excellent levels of control efficacy |  |  |  |  |
| N#CC1CCN(Cc2cn(-c3ccc(Cl)c(Cl)c3)nc2C#Cc2ccccc2)CC1 [Compound 32] | very good to excellent levels of control efficacy |  |  |  |  |
| N#CC1CCN(Cc2cn(-c3cc(C(F)(F)F)ccn3)nc2C2CC2)CC1 [Compound 35] | very good to excellent levels of control efficacy | very good to excellent levels of control efficacy | very good to excellent levels of control efficacy | very good to excellent levels of control efficacy |  |
| FC(F)(F)C1CCN(Cc2cn(-c3ccc(Cl)cn3)nc2C2CCCC2)CC1 [Compound 36] | very good to excellent levels of control efficacy | very good to excellent levels of control efficacy | very good to excellent levels of control efficacy | very good to excellent levels of control efficacy |  |
| FC(F)(F)C1CCN(Cc2cn(-c3cc(Cl)ccn3)nc2C2CCCC2)CC1 [Compound 37] | very good to excellent levels of control efficacy | very good to excellent levels of control efficacy | very good to excellent levels of control efficacy | very good to excellent levels of control efficacy |  |
| N#CC1CCN(Cc2cn(-c3cc(Cl)ccn3)nc2C2CCCC2)CC1 [Compound 38, 1-[[1-(4-chloro-2-pyridinyl)-3-cyclopentyl-1H-pyrazol-4-yl]methyl]-4-piperidinecarbonitrile] | very good to excellent levels of control efficacy | very good to excellent levels of control efficacy | very good to excellent levels of control efficacy | very good to excellent levels of control efficacy | ≥ 80 |
| N#CC1CCN(Cc2cn(-c3cc(C(F)(F)F)ccn3)nc2C2CCC2)CC1 [Compound 46, 1-[[3-cyclobutyl-1-[4-(trifluoromethyl)-2-pyridinyl]-1H-pyrazol-4-yl]methyl]-4-piperidinecarbonitrile] | very good to excellent levels of control efficacy | very good to excellent levels of control efficacy | very good to excellent levels of control efficacy | very good to excellent levels of control efficacy | ≥ 80 |
